Measured values taken from the supplement of paper PMC10307832.

Experiments:
Assay in all cases: relative viability (nuclei count vs DMSO), 5 days (fraction); higher = more cells survive
HCC-15 = test system: HCC-15
Method in brief: (§1)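 Dosing by pin tool came one day after lung cancer cell lines were seeded in 1536-well plates, using either one drug or a fixed anchor-drug dose plus five library-drug doses (not always all listed) in √10 steps. After 5 days, nuclei were counted on 4× images. Relative viability is treated-well nuclei count divided by vehicle-well nuclei count, and values are medians of duplicate plates.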

NCI-H838 = test system: NCI-H838
Method in brief: as §1

BEN = test system: BEN
Method in brief: as §1

NCI-H2342 = test system: NCI-H2342
Method in brief: as §1

NCI-H647 = test system: NCI-H647
Method in brief: as §1

NCI-H460 = test system: NCI-H460
Method in brief: as §1

NCI-H1355 = test system: NCI-H1355
Method in brief: as §1

NCI-H23 = test system: NCI-H23
Method in brief: as §1

LU99A = test system: LU99A
Method in brief: as §1

LCLC-97TM1 = test system: LCLC-97TM1
Method in brief: as §1

201T = test system: 201T
Method in brief: as §1

NCI-H1395 = test system: NCI-H1395
Method in brief: as §1

NCI-H2126 = test system: NCI-H2126
Method in brief: as §1

NCI-H2405 = test system: NCI-H2405
Method in brief: as §1

NCI-H322M = test system: NCI-H322M
Method in brief: as §1

NCI-H650 = test system: NCI-H650
Method in brief: as §1

EPLC-272H = test system: EPLC-272H
Method in brief: as §1

HCC-78 = test system: HCC-78
Method in brief: as §1

NCI-H2085 = test system: NCI-H2085
Method in brief: as §1

PC-14 = test system: PC-14
Method in brief: as §1

Compound: Cc1csc(=NC2CCCCC2)n1/N=C/c1ccc(O)c(O)c1O [MIM1] + NC(=O)Nc1cc(-c2cccc(F)c2)sc1C(=O)N[C@H]1CCCNC1 [AZD7762] (partner 0.2 µM)
- relative viability (HCC-15; first compound 0.2 µM): 1.2
- relative viability (HCC-15; first compound 2 µM): 1.23
- relative viability (HCC-15; first compound 6.325 µM): 0.808
- relative viability (HCC-15; first compound 20 µM): 0.179
- relative viability (NCI-H838; first compound 0.2 µM): 0.868
- relative viability (NCI-H838; first compound 0.6325 µM): 0.947
- relative viability (NCI-H838; first compound 2 µM): 0.751
- relative viability (NCI-H838; first compound 6.325 µM): 0.84
- relative viability (NCI-H838; first compound 20 µM): 0.691
- relative viability (BEN; first compound 0.2 µM): 0.781
- relative viability (BEN; first compound 0.6325 µM): 0.645
- relative viability (BEN; first compound 2 µM): 0.67
- relative viability (BEN; first compound 6.325 µM): 0.707
- relative viability (BEN; first compound 20 µM): 0.336
- relative viability (NCI-H2342; first compound 0.2 µM): 0.414
- relative viability (NCI-H2342; first compound 0.6325 µM): 0.475
- relative viability (NCI-H2342; first compound 2 µM): 0.431
- relative viability (NCI-H2342; first compound 6.325 µM): 0.477
- relative viability (NCI-H2342; first compound 20 µM): 0.543
- relative viability (NCI-H647; first compound 0.2 µM): 0.502
- relative viability (NCI-H647; first compound 0.6325 µM): 0.379
- relative viability (NCI-H647; first compound 6.325 µM): 0.409
- relative viability (NCI-H647; first compound 20 µM): 0.073
- relative viability (NCI-H460; first compound 0.2 µM): 0.538
- relative viability (NCI-H460; first compound 0.6325 µM): 0.629
- relative viability (NCI-H460; first compound 2 µM): 0.526
- relative viability (NCI-H460; first compound 6.325 µM): 0.251
- relative viability (NCI-H460; first compound 20 µM): 0.0582
- relative viability (NCI-H1355; first compound 0.2 µM): 0.802
- relative viability (NCI-H1355; first compound 0.6325 µM): 0.69
- relative viability (NCI-H1355; first compound 2 µM): 0.814
- relative viability (NCI-H1355; first compound 6.325 µM): 0.529
- relative viability (NCI-H1355; first compound 20 µM): 0.673
- relative viability (NCI-H23; first compound 0.2 µM): 0.277
- relative viability (NCI-H23; first compound 0.6325 µM): 0.213
- relative viability (NCI-H23; first compound 2 µM): 0.192
- relative viability (NCI-H23; first compound 6.325 µM): 0.263
- relative viability (NCI-H23; first compound 20 µM): 0.139
- relative viability (LU99A; first compound 0.2 µM): 0.364
- relative viability (LU99A; first compound 0.6325 µM): 0.265
- relative viability (LU99A; first compound 2 µM): 0.258
- relative viability (LU99A; first compound 6.325 µM): 0.218
- relative viability (LU99A; first compound 20 µM): 0.0782
- relative viability (LCLC-97TM1; first compound 0.2 µM): 0.231
- relative viability (LCLC-97TM1; first compound 0.6325 µM): 0.243
- relative viability (LCLC-97TM1; first compound 2 µM): 0.196
- relative viability (LCLC-97TM1; first compound 6.325 µM): 0.145
- relative viability (LCLC-97TM1; first compound 20 µM): 0.0668
- relative viability (201T; first compound 0.2 µM): 0.62
- relative viability (201T; first compound 0.6325 µM): 0.691
- relative viability (201T; first compound 2 µM): 0.588
- relative viability (201T; first compound 6.325 µM): 0.453
- relative viability (201T; first compound 20 µM): 0.305
- relative viability (NCI-H1395; first compound 0.2 µM): 0.416
- relative viability (NCI-H1395; first compound 0.6325 µM): 0.409
- relative viability (NCI-H1395; first compound 2 µM): 0.338
- relative viability (NCI-H1395; first compound 6.325 µM): 0.387
- relative viability (NCI-H1395; first compound 20 µM): 0.337
- relative viability (NCI-H2126; first compound 0.2 µM): 0.934
- relative viability (NCI-H2126; first compound 0.6325 µM): 0.985
- relative viability (NCI-H2126; first compound 2 µM): 1.07
- relative viability (NCI-H2126; first compound 6.325 µM): 0.913
- relative viability (NCI-H2126; first compound 20 µM): 0.786
- relative viability (NCI-H2405; first compound 0.2 µM): 0.835
- relative viability (NCI-H2405; first compound 0.6325 µM): 0.806
- relative viability (NCI-H2405; first compound 2 µM): 0.772
- relative viability (NCI-H2405; first compound 6.325 µM): 0.667
- relative viability (NCI-H2405; first compound 20 µM): 0.849
- relative viability (NCI-H322M; first compound 0.2 µM): 0.564
- relative viability (NCI-H322M; first compound 0.6325 µM): 0.652
- relative viability (NCI-H322M; first compound 2 µM): 0.446
- relative viability (NCI-H322M; first compound 6.325 µM): 0.455
- relative viability (NCI-H322M; first compound 20 µM): 0.439
- relative viability (NCI-H650; first compound 0.2 µM): 1.05
- relative viability (NCI-H650; first compound 0.6325 µM): 1.03
- relative viability (NCI-H650; first compound 2 µM): 0.866
- relative viability (NCI-H650; first compound 6.325 µM): 0.975
- relative viability (NCI-H650; first compound 20 µM): 0.271
- relative viability (EPLC-272H; first compound 0.2 µM): 0.224
- relative viability (EPLC-272H; first compound 0.6325 µM): 0.305
- relative viability (EPLC-272H; first compound 2 µM): 0.208
- relative viability (EPLC-272H; first compound 6.325 µM): 0.245
- relative viability (EPLC-272H; first compound 20 µM): 0.106
- relative viability (HCC-78; first compound 0.2 µM): 0.548
- relative viability (HCC-78; first compound 2 µM): 0.611
- relative viability (HCC-78; first compound 6.325 µM): 0.507
- relative viability (HCC-78; first compound 20 µM): 0.662
- relative viability (NCI-H2085; first compound 0.2 µM): 1
- relative viability (NCI-H2085; first compound 0.6325 µM): 0.963
- relative viability (NCI-H2085; first compound 2 µM): 1.07
- relative viability (NCI-H2085; first compound 6.325 µM): 0.766
- relative viability (NCI-H2085; first compound 20 µM): 0.775
- relative viability (PC-14; first compound 0.2 µM): 0.353
- relative viability (PC-14; first compound 0.6325 µM): 0.244
- relative viability (PC-14; first compound 2 µM): 0.288
- relative viability (PC-14; first compound 6.325 µM): 0.311
- relative viability (PC-14; first compound 20 µM): 0.111
